The values that follow come from US20260297081A1, “COMPOUNDS AND METHODS OF TREATING CANCERS” (Cullgen Inc., priority 2023, published 2026).

Common to all, as to assay type: cell-based
One test has as its system T47D cells. Put plainly: Anti-proliferation (viability) of ER+ breast cancer T47D cells, 6 days (Table 7, FIG. 2B). The note with it: Homo sapiens, 144 h; T47D cells, 6 days, 10-point serial dilution; read-out: GI IC50 in T47D. How it is done:
To evaluate anti-proliferation activities of heterobifunctional compounds, NSCLC Calu-1 or ER+ breast cancer T47D cells were treated with selected heterobifunctional compounds following a 10-point serial dilution for 3 or 6 days, respectively.
To verify that heterobifunctional compound-mediated degradation is dependent on the binding to CDK4-cyclin D complex, a negative control compound, CPD-143, which is derived from active heterobifunctional compound CPD-10 was designed. CPD-143 bears the same DDB1 ligand and linker as CPD-10 but with a modified warhead to impair the binding of the control compound to CDK4.

Test [1] concerns the target T1, CDK4 (Homo sapiens, UniProt P11802+Q16531). Put plainly: CDK4 percentage degradation in Calu-1 cells (Table 6). Conditions: 16 hours; for inhibition at 0.04 µM: 40 nM; for inhibition at 0.2 µM: 200 nM. Also on record: Cells that express cyclin D1-3 and CDK4/6 proteins were treated with heterobifunctional compounds; endogenous in cells; host or cells: Calu-1. Summed up:
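Percentage degradation of Cyclin D1 and CDK4 derived from densitometry of ECL Western blots on lysates of Calu-1 cells. Treatment was 16 h with compound at either 40 nM or 200 nM.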
Target sequence in this assay (P11802 2-303 limits assumed): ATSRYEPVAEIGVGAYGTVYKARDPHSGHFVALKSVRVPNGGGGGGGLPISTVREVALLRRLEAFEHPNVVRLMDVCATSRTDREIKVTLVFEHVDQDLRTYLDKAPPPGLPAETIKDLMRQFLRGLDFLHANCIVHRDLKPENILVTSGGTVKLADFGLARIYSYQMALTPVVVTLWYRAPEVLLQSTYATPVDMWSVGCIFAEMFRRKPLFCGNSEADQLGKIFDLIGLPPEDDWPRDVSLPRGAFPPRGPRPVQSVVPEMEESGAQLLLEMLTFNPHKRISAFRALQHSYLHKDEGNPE
Target sequence in this assay (P24385 whole entry partner): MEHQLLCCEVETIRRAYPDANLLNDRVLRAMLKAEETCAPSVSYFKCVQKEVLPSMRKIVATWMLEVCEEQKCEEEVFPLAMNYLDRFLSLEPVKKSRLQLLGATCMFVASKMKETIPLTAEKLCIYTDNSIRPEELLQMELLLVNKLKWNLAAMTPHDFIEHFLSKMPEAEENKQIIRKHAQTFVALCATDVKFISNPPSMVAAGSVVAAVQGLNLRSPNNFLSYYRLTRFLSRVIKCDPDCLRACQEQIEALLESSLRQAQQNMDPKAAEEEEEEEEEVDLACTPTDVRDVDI
Target sequence in this assay (Q16531 2-1140 limits assumed): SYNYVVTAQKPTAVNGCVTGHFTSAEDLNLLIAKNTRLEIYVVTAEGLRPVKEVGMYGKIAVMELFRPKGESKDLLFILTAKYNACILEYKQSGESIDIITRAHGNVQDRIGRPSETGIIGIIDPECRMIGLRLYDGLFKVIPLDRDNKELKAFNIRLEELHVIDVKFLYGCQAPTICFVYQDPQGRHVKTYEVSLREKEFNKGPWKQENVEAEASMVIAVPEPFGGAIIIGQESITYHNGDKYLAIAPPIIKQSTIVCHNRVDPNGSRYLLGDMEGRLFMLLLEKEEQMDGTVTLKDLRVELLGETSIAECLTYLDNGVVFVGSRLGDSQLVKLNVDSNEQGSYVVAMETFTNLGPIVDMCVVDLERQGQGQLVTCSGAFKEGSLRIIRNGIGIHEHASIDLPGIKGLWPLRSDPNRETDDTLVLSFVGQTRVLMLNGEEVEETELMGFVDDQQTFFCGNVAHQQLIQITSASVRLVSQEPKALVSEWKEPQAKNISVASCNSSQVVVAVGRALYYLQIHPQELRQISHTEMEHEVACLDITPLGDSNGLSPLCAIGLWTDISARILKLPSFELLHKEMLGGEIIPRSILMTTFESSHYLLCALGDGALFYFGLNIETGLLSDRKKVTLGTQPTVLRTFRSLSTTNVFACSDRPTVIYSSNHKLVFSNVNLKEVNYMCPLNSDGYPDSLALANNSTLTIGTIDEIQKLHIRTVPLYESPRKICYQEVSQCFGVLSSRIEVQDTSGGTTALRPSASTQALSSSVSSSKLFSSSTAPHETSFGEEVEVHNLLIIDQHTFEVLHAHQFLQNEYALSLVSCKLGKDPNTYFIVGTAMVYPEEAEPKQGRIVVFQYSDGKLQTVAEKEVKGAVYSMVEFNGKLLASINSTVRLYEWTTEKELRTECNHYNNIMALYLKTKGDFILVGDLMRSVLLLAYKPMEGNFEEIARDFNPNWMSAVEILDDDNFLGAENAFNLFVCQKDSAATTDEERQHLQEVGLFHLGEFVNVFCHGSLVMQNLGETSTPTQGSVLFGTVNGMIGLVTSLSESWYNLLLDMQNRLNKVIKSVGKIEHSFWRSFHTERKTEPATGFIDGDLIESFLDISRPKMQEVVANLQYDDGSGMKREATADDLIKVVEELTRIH

Test [2] deals with T1, CDK4. The test is described as follows: HiBiT detection of HiBiT-tagged CDK4 protein level in MCF7 cells, 16 hours (Table 8). Conditions: MCF7 cells stably expressing HiBiT tagged target proteins; for activity at 0.01 µM: 10 nM, read-out: % CDK4 Relative Level (10 nM); for activity at 0.1 µM: 100 nM, read-out: % CDK4 Relative Level (100 nM). The arrangement: expressed in transfected cells; host or cells: MCF7. The procedure: HiBiT detection system quantitatively measures total amounts of HiBiT-tagged proteins using a luminescent based method. MCF7 cells stably expressing HiBiT tagged target proteins were treated with heterobifunctional compounds at indicated concentrations for 16 hours, then lysed with Nano-Glo HiBiT Lytic detection reagents.
Target sequence in this assay (P11802 whole entry): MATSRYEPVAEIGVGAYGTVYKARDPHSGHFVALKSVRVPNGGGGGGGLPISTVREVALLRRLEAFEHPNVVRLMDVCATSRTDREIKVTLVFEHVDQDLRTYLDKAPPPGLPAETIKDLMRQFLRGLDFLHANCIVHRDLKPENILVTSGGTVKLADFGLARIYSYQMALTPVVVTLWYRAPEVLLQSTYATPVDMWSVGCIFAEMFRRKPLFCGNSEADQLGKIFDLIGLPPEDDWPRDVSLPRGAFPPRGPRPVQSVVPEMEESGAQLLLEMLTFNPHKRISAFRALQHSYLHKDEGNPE
Target sequence in this assay (P24385 whole entry partner): as the sequence (P24385 whole entry partner) above
Target sequence in this assay (Q16531 2-1140 limits assumed): as the sequence (Q16531 2-1140 limits assumed) above

The next test relates to MCF7 cells. Put plainly: Anti-proliferation (viability) of MCF7 cells (Table 7, FIG. 2B). The note with it: Homo sapiens, MCF7, MCF7 cells, 3-6 days, 10-point serial dilution; read-out: GI IC50 in MCF-7.
The next test has as its system Calu-1 cells. Put plainly: Anti-proliferation (viability) of NSCLC Calu-1 cells, 3 days (Table 7, FIG. 2B). Conditions: Homo sapiens, 72 h; Calu-1 cells, 3 days, 10-point serial dilution; read-out: GI IC50 in Calu-1. Summed up: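 Cells treated with heterobifunctional compounds in 10-point serial dilution, then viability measured; Calu-1 NSCLC cells exposed for 3 days, ER+ T47D breast cancer cells for 6 days.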

The term IC50 denotes the concentration that inhibits the measured activity by half. `CC(=O)c1c(C)c2cnc(Nc3ccc(N4CCN(CC(=O)NCC5CC(Nc6c(C(=O)Nc7cc(C)n(C)n7)cccc6C(F)(F)F)C5)CC4)cn3)nc2n(C2CCCC2)c1=O` (stereo not shown) [CPD-266, 2-((3-((2-(4-(6-((6-acetyl-8-cyclopentyl-5-methyl-7-oxo-7,8-dihydropyrido[2,3-d]pyrimidin-2-yl)amino)pyridin-3-yl)piperazin-1-yl)acetamido)methyl)cyclobutyl)amino)-N-(1,5-dimethyl-1H-pyrazol-3-yl)-3-(trifluoromethyl)benzamide]: in the test on T47D cells, the IC50 is at least 100 nM.

A word on the inhibition: it is the relative decrease from the control value, in per cent. Low values mean a response near the control, high ones a response far below the control. On to `CC(=O)c1c(C)c2cnc(Nc3ccc(N4CCN(CC(=O)NC5CC6(C5)CC(Nc5nc(NC(C)C)ccc5C(=O)Nc5cc(C)n(C)n5)C6)CC4)cn3)nc2n(C2CCCC2)c1=O` (stereo not shown) [CPD-253, 2-((6-(2-(4-(6-((6-acetyl-8-cyclopentyl-5-methyl-7-oxo-7,8-dihydropyrido[2,3-d]pyrimidin-2-yl)amino)pyridin-3-yl)piperazin-1-yl)acetamido)spiro[3.3]heptan-2-yl)amino)-N-(1,5-dimethyl-1H-pyrazol-3-yl)-6-(isopropylamino)nicotinamide], for which, on CDK4 [1], the inhibition at 0.04 µM was below 30% and the inhibition at 0.2 µM was below 30%. In addition, at CDK4 [2], the activity at 0.01 µM is above 85% and the activity at 0.1 µM was 55 to 85%. Also, in the test with MCF7 cells, the IC50 was below 50 nM. Moreover, the half-maximal inhibitory concentration (IC50) in the test with T47D cells is at least 100 nM.

At CDK4 [1], `CNc1ccc(C(=O)Nc2ccc(N(C)C)nn2)c(NC2CCN(C(=O)CCN3CCN(c4ccc(Nc5ncc6c(C)c(C(C)=O)c(=O)n(C7CCCC7)c6n5)nc4)CC3)C2)n1` (stereo not shown) [CPD-218, 2-((1-(3-(4-(6-((6-acetyl-8-cyclopentyl-5-methyl-7-oxo-7,8-dihydropyrido[2,3-d]pyrimidin-2-yl)amino)pyridin-3-yl)piperazin-1-yl)propanoyl)pyrrolidin-3-yl)amino)-N-(6-(dimethylamino)pyridazin-3-yl)-6-(methylamino)nicotinamide] registered an inhibition at 0.04 µM of 50 to 80% and an inhibition at 0.2 µM of 50 to 80%. Moreover, in the test on MCF7 cells, the IC50 was in the range of 50 to 100 nM. The IC50 in the test on T47D cells lay within 50 to 100 nM.

Turning to `CC(=O)c1c(C)c2cnc(Nc3ccc(N4CCN(CC(=O)NCC5CC(Nc6c(F)cccc6C(=O)Nc6cc(C)n(C)n6)C5)CC4)cn3)nc2n(C2CCCC2)c1=O` (stereo not shown) [CPD-265, 2-((3-((2-(4-(6-((6-acetyl-8-cyclopentyl-5-methyl-7-oxo-7,8-dihydropyrido[2,3-d]pyrimidin-2-yl)amino)pyridin-3-yl)piperazin-1-yl)acetamido)methyl)cyclobutyl)amino)-N-(1,5-dimethyl-1H-pyrazol-3-yl)-3-fluorobenzamide], the IC50 with T47D cells is at least 100 nM.

Take `CNc1ccc(C(=O)Nc2cn(C)c(C3CC3)n2)c(NC2CC(CNC(=O)CN3CCN(c4ccc(Nc5ncc6c(C)c(C(C)=O)c(=O)n(C7CCCC7)c6n5)nc4)CC3)C2)n1` (stereo not shown) [CPD-254, 2-((3-((2-(4-(6-((6-acetyl-8-cyclopentyl-5-methyl-7-oxo-7,8-dihydropyrido[2,3-d]pyrimidin-2-yl)amino)pyridin-3-yl)piperazin-1-yl)acetamido)methyl)cyclobutyl)amino)-N-(2-cyclopropyl-1-methyl-1H-imidazol-4-yl)-6-(methylamino)nicotinamide]: the IC50 is above 100 nM with MCF7 cells and at least 100 nM with T47D cells.

Regarding `CNc1ccc(C(=O)Nc2ccc(N(C)C)nn2)c(NC2CCC(NC(=O)CN3CCN(c4ccc(Nc5ncc6c(C)c(C(C)=O)c(=O)n(C7CCCC7)c6n5)nc4)CC3)C2)n1` (stereo not shown) [CPD-219, 2-((3-(2-(4-(6-((6-acetyl-8-cyclopentyl-5-methyl-7-oxo-7,8-dihydropyrido[2,3-d]pyrimidin-2-yl)amino)pyridin-3-yl)piperazin-1-yl)acetamido)cyclopentyl)amino)-N-(6-(dimethylamino)pyridazin-3-yl)-6-(methylamino)nicotinamide], at CDK4 [1], the inhibition at 0.04 µM fell in the range of 50 to 80% and the inhibition at 0.2 µM fell in the range of 50 to 80%. Moreover, the IC50 in the test with MCF7 cells fell in the range of 50 to 100 nM. In addition, in the test with T47D cells, the IC50 fell in the range of 50 to 100 nM.

For `CC(=O)c1c(C)c2cnc(Nc3ccc(N4CCN(CC(=O)NC5CC6(C5)CC(Nc5nc(NC(C)C)ccc5C(=O)Nc5cn(C)c(C7CC7)n5)C6)CC4)cn3)nc2n(C2CCCC2)c1=O` (stereo not shown) [CPD-222, 2-((6-(2-(4-(6-((6-acetyl-8-cyclopentyl-5-methyl-7-oxo-7,8-dihydropyrido[2,3-d]pyrimidin-2-yl)amino)pyridin-3-yl)piperazin-1-yl)acetamido)spiro[3.3]heptan-2-yl)amino)-N-(2-cyclopropyl-1-methyl-1H-imidazol-4-yl)-6-(isopropylamino)nicotinamide], at CDK4 [1], the inhibition at 0.04 µM lay in the range of 50 to 80% and the inhibition at 0.2 µM is 50 to 80%. For the same compound, in the test on MCF7 cells, the IC50 lay in the range of 50 to 100 nM. The IC50 with T47D cells is at most 50 nM.

Regarding `CC(=O)c1c(C)c2cnc(Nc3ccc(N4CCN(CC(=O)NCC5CC(Nc6nc(NC(C)C)ccc6C(=O)Nc6cc(C)on6)C5)CC4)cn3)nc2n(C2CCCC2)c1=O` (stereo not shown) [CPD-282, 2-((3-((2-(4-(6-((6-acetyl-8-cyclopentyl-5-methyl-7-oxo-7,8-dihydropyrido[2,3-d]pyrimidin-2-yl)amino)pyridin-3-yl)piperazin-1-yl)acetamido)methyl)cyclobutyl)amino)-6-(isopropylamino)-N-(5-methylisoxazol-3-yl)nicotinamide], in the test on Calu-1 cells, the IC50 was at most 10 nM. Moreover, on CDK4 [1], the inhibition at 0.04 µM is below 30% and the inhibition at 0.2 µM was below 30%. Further, at CDK4 [2], the activity at 0.01 µM is 55 to 85% and the activity at 0.1 µM was in the range of 55 to 85%. The IC50 in the test on MCF7 cells is below 50 nM.

Turning to `[2H]C([2H])([2H])Nc1ccc(C(=O)Nc2cccc(C3CC3)n2)c(NC2CCN(C(=O)CN3CCN(c4ccc(Nc5ncc6c(C)c(C(C)=O)c(=O)n(C7CCCC7)c6n5)nc4)CC3)CC2)n1` [CPD-252, 2-((1-(2-(4-(6-((6-acetyl-8-cyclopentyl-5-methyl-7-oxo-7,8-dihydropyrido[2,3-d]pyrimidin-2-yl)amino)pyridin-3-yl)piperazin-1-yl)acetyl)piperidin-4-yl)amino)-N-(6-cyclopropylpyridin-2-yl)-6-((methyl-d3)amino)nicotinamide], in the test on T47D cells, the 50% inhibitory concentration (IC50) was at least 100 nM.

In the case of `CC(=O)c1c(C)c2cnc(Nc3ccc(N4CCC(N(C)CC(=O)NC56CC(Nc7nc(NC(C)C)ccc7C(=O)Nc7ccc(N(C)C)nn7)(C5)C6)CC4)cn3)nc2n(C2CCCC2)c1=O` [CPD-505, 2-((3-(2-((1-(6-((6-acetyl-8-cyclopentyl-5-methyl-7-oxo-7,8-dihydropyrido[2,3-d]pyrimidin-2-yl)amino)pyridin-3-yl)piperidin-4-yl)(methyl)amino)acetamido)bicyclo[1.1.1]pentan-1-yl)amino)-N-(6-(dimethylamino)pyridazin-3-yl)-6-(isopropylamino)nicotinamide], in the test with Calu-1 cells, the IC50 is at most 10 nM. At CDK4 [2], the activity at 0.01 µM was above 85% and the activity at 0.1 µM was above 85%. Further, in the test on MCF7 cells, the IC50 was below 50 nM.

In the case of `CC(=O)c1c(C)c2cnc(Nc3ccc(N4CCN(CC(=O)NCC5CC(Nc6nc(C)ccc6C(=O)Nc6cc(C)n(C)n6)C5)CC4)cn3)nc2n(C2CCCC2)c1=O` (stereo not shown) [CPD-209, 2-((3-((2-(4-(6-((6-acetyl-8-cyclopentyl-5-methyl-7-oxo-7,8-dihydropyrido[2,3-d]pyrimidin-2-yl)amino)pyridin-3-yl)piperazin-1-yl)acetamido)methyl)cyclobutyl)amino)-N-(1,5-dimethyl-1H-pyrazol-3-yl)-6-methylnicotinamide], at CDK4 [1], the inhibition at 0.04 µM was in the range of 30 to 50% and the inhibition at 0.2 µM lay within 50 to 80%. In addition, the IC50 in the test with T47D cells was at least 100 nM.

For `[2H]C([2H])([2H])Nc1ccc(C(=O)Nc2cccc(OC)n2)c(NC2CC3(C2)CN(C(=O)CC(N2CCN(c4ccc(Nc5ncc6c(C)c(C(C)=O)c(=O)n(C7CCCC7)c6n5)nc4)CC2)C(F)(F)F)C3)n1` (stereo not shown) [CPD-531, 2-((2-(3-(4-(6-((6-acetyl-8-cyclopentyl-5-methyl-7-oxo-7,8-dihydropyrido[2,3-d]pyrimidin-2-yl)amino)pyridin-3-yl)piperazin-1-yl)-4,4,4-trifluorobutanoyl)-2-azaspiro[3.3]heptan-6-yl)amino)-N-(6-methoxypyridin-2-yl)-6-((methyl-d3)amino)nicotinamide], in the test on Calu-1 cells, the IC50 was at most 10 nM. For the same compound, at CDK4 [2], the activity at 0.01 µM was in the range of 55 to 85% and the activity at 0.1 µM was in the range of 55 to 85%. Also, in the test on MCF7 cells, the IC50 is below 50 nM.
